Test results taken from ChEMBL document CHEMBL4665750, “Structure-Activity Relationship Study of Majusculamides A and B and Their Analogues on Osteogenic Activity” (J Nat Prod, 2020).
Active and inactive are the calls of the source. No cut-off for these calls is given here.

Experiments:
MC3T3-E1 [1] = assay: Osteogenic activity in mouse MC3T3-E1 cells assessed as mineralization at 30 uM after 6 days by Alizarin Red S staining-based method; assay type: functional, cell-based; conditions: time 6.0 day
MC3T3-E1 [2] = assay: Activation of alkaline phosphatase secretion in mouse MC3T3-E1 cells at >= 30 uM using 4-nitrophenyl phosphate as substrate after 6 days; assay type: cell-based; conditions: dose microM >=30, time 6.0 day
MC3T3-E1 [3] = assay: Osteogenic activity in mouse MC3T3-E1 cells assessed as mineralization at >= 30 uM after 6 days by Alizarin Red S staining-based method; assay type: functional, cell-based; conditions: dose microM >=30, time 6.0 day
MC3T3-E1 [4] = assay: Activation of alkaline phosphatase secretion in mouse MC3T3-E1 cells at 30 uM using 4-nitrophenyl phosphate as substrate after 6 days; assay type: cell-based; conditions: time 6.0 day
MC3T3-E1 [5] = assay: Cytotoxicity against mouse MC3T3-E1 cells assessed as reduction in cell viability at 30 uM after 6 days by MTT assay; assay type: cell-based; conditions: mc3t3-e1, 144 h, time 6 day
MC3T3-E1 [6] = assay: Osteogenic activity in mouse MC3T3-E1 cells assessed as mineralization at 15 uM after 6 days by Alizarin Red S staining-based method; assay type: functional, cell-based; conditions: time 6.0 day
MC3T3-E1 [7] = assay: Activation of alkaline phosphatase secretion in mouse MC3T3-E1 cells at 15 uM using 4-nitrophenyl phosphate as substrate after 6 days; assay type: cell-based; conditions: filed as activator, time 6.0 day
MC3T3-E1 [8] = assay: Osteogenic activity in mouse MC3T3-E1 cells assessed as mineralization at 7.5 uM after 6 days by Alizarin Red S staining-based method; assay type: functional, cell-based; conditions: time 6.0 day
MC3T3-E1 [9] = assay: Cytotoxicity against mouse MC3T3-E1 cells assessed as reduction in cell viability at >= 30 uM after 6 days by MTT assay; assay type: cell-based; conditions: mc3t3-e1, 144 h, time 6 day

SMILES: CCCCCCCC[C@H](C)C(=O)N(C)[C@H](Cc1ccc(OC)cc1)C(=O)N(C)[C@H](C(N)=O)C(C)C
- Activity (MC3T3-E1 [1]): Active
- Activity (MC3T3-E1 [2]): inactive
- Activity (MC3T3-E1 [3]): inactive

SMILES: CCCCCCCC(=O)[C@@H](C)C(=O)N(C)[C@H](Cc1ccccc1)C(=O)N(C)[C@H](C(N)=O)C(C)C
- Activity (MC3T3-E1 [2]; filed as activator): Active
- Activity (MC3T3-E1 [3]): inactive

SMILES: CCCCCCC[C@@H](O)[C@H](C)C(=O)N(C)[C@H](Cc1ccc(OC)cc1)C(=O)N(C)[C@H](C(N)=O)C(C)C
- Activity (MC3T3-E1 [1]): Active
- Activity (MC3T3-E1 [4]; filed as activator): Active

SMILES: CCCCCCCCCC(=O)N(C)[C@H](Cc1ccc(OC)cc1)C(=O)N(C)[C@H](C(N)=O)C(C)C
- Activity (MC3T3-E1 [2]; filed as activator): Active
- Activity (MC3T3-E1 [5]): Toxic
- Activity (MC3T3-E1 [3]): Active

SMILES: CCCCCCCCCC(=O)[C@@H](C)C(=O)N(C)[C@H](Cc1ccc(OC)cc1)C(=O)N(C)[C@H](C(N)=O)C(C)C
- Activity (MC3T3-E1 [6]): inactive
- Activity (MC3T3-E1 [5]): Toxic
- Activity (MC3T3-E1 [7]): Active

SMILES: CCCCCCCC(=O)[C@@H](C)C(=O)N(C)[C@H](Cc1ccc(OC)cc1)C(=O)N(C)[C@@H](C)C(N)=O
- Activity (MC3T3-E1 [1]): inactive
- Activity (MC3T3-E1 [2]; filed as activator): Active
- Activity (MC3T3-E1 [6]): Active
- Activity (MC3T3-E1 [8]): Active

SMILES: CCCCCCC[C@H](O)[C@@H](C)C(=O)N(C)[C@H](Cc1ccc(OC)cc1)C(=O)N(C)[C@H](C(N)=O)C(C)C
- Activity (MC3T3-E1 [1]): inactive
- Activity (MC3T3-E1 [4]; filed as activator): Active

SMILES: CCCCCCCC(=O)[C@H](C)C(=O)N(C)[C@H](Cc1ccc(OC)cc1)C(=O)N(C)[C@H](C(N)=O)C(C)C
- Activity (MC3T3-E1 [2]; filed as activator): Active
- Activity (MC3T3-E1 [9]): Non-Toxic
- Activity (MC3T3-E1 [3]): Active

SMILES: CCCCCC(=O)[C@@H](C)C(=O)N(C)[C@H](Cc1ccc(OC)cc1)C(=O)N(C)[C@H](C(N)=O)C(C)C
- Activity (MC3T3-E1 [1]): inactive
- Activity (MC3T3-E1 [4]; filed as activator): Active

SMILES: CCCCCCCC(=O)[C@@H](C)C(=O)N(C)[C@H](Cc1cc(Cl)c(OC)c(Cl)c1)C(=O)N(C)[C@H](C(N)=O)C(C)C
- Activity (MC3T3-E1 [1]): inactive
- Activity (MC3T3-E1 [5]): Toxic
- Activity (MC3T3-E1 [4]): inactive

SMILES: CCCCCCCC[C@@H](C)C(=O)N(C)[C@H](Cc1ccc(OC)cc1)C(=O)N(C)[C@H](C(N)=O)C(C)C
- Activity (MC3T3-E1 [1]): Active
- Activity (MC3T3-E1 [2]): inactive
- Activity (MC3T3-E1 [3]): inactive

SMILES: CCCCCCCC(=O)C(C)(C)C(=O)N(C)[C@H](Cc1ccc(OC)cc1)C(=O)N(C)[C@H](C(N)=O)C(C)C
- Activity (MC3T3-E1 [2]; filed as activator): Active
- Activity (MC3T3-E1 [3]): inactive

SMILES: CCCC(=O)[C@@H](C)C(=O)N(C)[C@H](Cc1ccc(OC)cc1)C(=O)N(C)[C@H](C(N)=O)C(C)C
- Activity (MC3T3-E1 [1]): inactive
- Activity (MC3T3-E1 [4]; filed as activator): Active

SMILES: CCCCCCCC(=O)CC(=O)N(C)[C@H](Cc1ccc(OC)cc1)C(=O)N(C)[C@H](C(N)=O)C(C)C
- Activity (MC3T3-E1 [2]; filed as activator): Active
- Activity (MC3T3-E1 [3]): inactive

SMILES: CCCCCCCC(=O)[C@@H](C)C(=O)N(C)[C@H](Cc1ccc(OC)cc1)C(=O)N(C)[C@H](C(N)=O)C(C)C
- Activity (MC3T3-E1 [2]; filed as activator): Active
- Activity (MC3T3-E1 [9]): Non-Toxic
- Activity (MC3T3-E1 [3]): Active
